Source: US20100063074A1, “Cancer Treatment Method” (priority 2004, published 2010)
Where two headings read alike, the source gives them in different places.

Legend:
EGFR and erbB2 kinases = conditions: Rusnak et al., 2001b; Xia et al., 2002; cited from earlier work
[1] = test system: pancreatic cancer with distant metastases; conditions: pancreatic tumors with distant metastases; cited from earlier work
Lovo = assay: Cell growth inhibition IC50, Lovo; type: cell-based; conditions: Homo sapiens, Colorectal carcinoma
Procedure: (§1) The human bladder cell lines, HT-1197, HT-1376 and T24, and the ovarian cell line, SKOV3, were obtained from the American Type Culture Collection. The cells were maintained in tissue culture flasks in RPMI 1640 (Invitrogen # 22400-089) with 10% fetal bovine serum (FBS, HyClone # SH30071.03) and were incubated at 37° Celsius in an atmosphere of 5% CO2, until plating for IC50 determination. For IC50 determination, cells were plated in the appropriate medium at 5,000 cells per well in a 96-well tissue culture dish and returned to the incubator overnight. […] Final concentrations ranged from 30 micromolar to 0.00152 micromolar. After three days of compound exposure, the growth medium was removed by aspiration. Cell biomass was estimated by staining cells in 0.1 ml per well of methylene blue (Sigma #M9140, 0.5% in 50:50, ethanol:water), followed by incubation at room temperature for at least 30 minutes. Stain was aspirated and the plates rinsed by immersion in deionized water, followed by air drying. Stain was released from cells by the addition of 0.1 ml of solubilization solution (1.0% N-lauryl sarcosine, Sodium salt, Sigma #L5121 in PBS). Plates were incubated at room temperature for 40 minutes. Absorbance was read at 620 nm in a Tecan Spectra micro-plate reader. Percent inhibition of cell growth was calculated relative to untreated control wells. […]

LS174T = assay: Cell growth inhibition IC50, LS174T; type: cell-based; conditions: Homo sapiens, Colon adenocarcinoma
Procedure: (§2) The cells were maintained in tissue culture flasks in RPMI 1640 (Invitrogen # 22400-089) with 10% fetal bovine serum (FBS, HyClone # SH30071.03) and were incubated at 37° Celsius in an atmosphere of 5% CO2, until plating for IC50 determination. For IC50 determination, cells were plated in the appropriate medium at 5,000 cells per well in a 96-well tissue culture dish and returned to the incubator overnight. […] Final concentrations ranged from 30 micromolar to 0.00152 micromolar. After three days of compound exposure, the growth medium was removed by aspiration. Cell biomass was estimated by staining cells in 0.1 ml per well of methylene blue (Sigma #M9140, 0.5% in 50:50, ethanol:water), followed by incubation at room temperature for at least 30 minutes. Stain was aspirated and the plates rinsed by immersion in deionized water, followed by air drying. Stain was released from cells by the addition of 0.1 ml of solubilization solution (1.0% N-lauryl sarcosine, Sodium salt, Sigma #L5121 in PBS). Plates were incubated at room temperature for 40 minutes. Absorbance was read at 620 nm in a Tecan Spectra micro-plate reader. Percent inhibition of cell growth was calculated relative to untreated control wells. IC50 values were interpolated using the method of Levenberg and Marquardt (Mager, 1972) and the equation: y=Vmax*[1−(x^n/(K^n+x^n))], where “K” is equal to IC50. […]

RKO = assay: Cell growth inhibition IC50, RKO; type: cell-based; conditions: Homo sapiens, Colorectal carcinoma
Procedure: as §2

H157 = assay: Cell growth inhibition IC50, H157; type: cell-based; conditions: Homo sapiens, NCI-H157, Lung carcinoma
Procedure: as §2

NCI-H727 = assay: Cell growth inhibition IC50, NCI-H727; type: cell-based; conditions: Homo sapiens, Lung carcinoid bronchus
Procedure: as §2

A427 = assay: Cell growth inhibition IC50, A427; type: cell-based; conditions: Homo sapiens, A-427, Lung Carcinoma
Procedure: as §1

NCI-H460 = assay: Cell growth inhibition IC50, NCI-H460; type: cell-based; conditions: Homo sapiens, Lung Carcinoma
Procedure: as §1

NCI-H322 = assay: Cell growth inhibition IC50, NCI-H322; type: cell-based; conditions: NSCLC
Procedure: as §2

SKMEL28 = assay: Cell growth inhibition IC50, SKMEL28; type: cell-based; conditions: Homo sapiens, SK-MEL-28, Melanoma
Procedure: as §2

[2] = test system: locally advanced or metastatic transitional cell carcinoma of the urothelial tract
Procedure: Safety and efficacy assessments (independent review) were carried out at 4 and 8-week intervals respectively. Patients were also assessed at withdrawal, and followed every 2 months until death.

[3] = test system: locally advanced or metastatic TCC of the bladder
solid tumors = conditions: for time remained on lapatinib, SD patient: progressing on previous therapy
HFF = assay: Cell growth inhibition IC50, HFF; conditions: Homo sapiens, read-out: Growth Inhibition (IC50 μM)
Procedure: as §1

PC3 = assay: Cell growth inhibition IC50, PC3; conditions: Homo sapiens, PC-3, read-out: Growth Inhibition (IC50 μM)
Procedure: as §1

HT29 = assay: Cell growth inhibition IC50, HT29; conditions: Homo sapiens, HT-29, read-out: Growth Inhibition (IC50 μM)
A549 = assay: Cell growth inhibition IC50, A549; conditions: Homo sapiens, A549, read-out: Growth Inhibition (IC50 μM)
Procedure: as §1

HMEC = assay: Cell growth inhibition IC50, HMEC; conditions: Homo sapiens, read-out: Growth Inhibition (IC50 μM)
Procedure: as §2

786O = assay: Cell growth inhibition IC50, 786O; conditions: Homo sapiens, 786-0, read-out: Growth Inhibition (IC50 μM)
Procedure: as §1

A431 = assay: Cell growth inhibition IC50, A431; conditions: Homo sapiens, A-431, read-out: Growth Inhibition (IC50 μM)
Procedure: as §1

SW480 = assay: Cell growth inhibition IC50, SW480; conditions: Homo sapiens, SW480, read-out: Growth Inhibition (IC50 μM)
Procedure: as §1

DLD-1 = assay: Cell growth inhibition IC50, DLD-1; conditions: Homo sapiens, DLD-1, read-out: Growth Inhibition (IC50 μM)
Procedure: as §2

SW620 = assay: Cell growth inhibition IC50, SW620; conditions: Homo sapiens, SW-620, read-out: Growth Inhibition (IC50 μM)
SW837 = assay: Cell growth inhibition IC50, SW837; conditions: Homo sapiens, SW837, read-out: Growth Inhibition (IC50 μM)
BxPC3 = assay: Cell growth inhibition IC50, BxPC3; conditions: Homo sapiens, BXPC-3, read-out: Growth Inhibition (IC50 μM)
Procedure: as §2

CaLu3 = assay: Cell growth inhibition IC50, CaLu3; conditions: Homo sapiens, Calu-3, read-out: Growth Inhibition (IC50 μM)
Procedure: as §1

Calu1 = assay: Cell growth inhibition IC50, Calu1; conditions: Homo sapiens, Calu-1, read-out: Growth Inhibition (IC50 μM)
Procedure: as §2

LNCaP = assay: Cell growth inhibition IC50, LNCaP; conditions: Homo sapiens, read-out: Growth Inhibition (IC50 μM)
Procedure: as §1

[4] = test system: H16 N2 (Transfected erbB2); assay: Cell growth inhibition IC50, H16 N2; conditions: read-out: Growth Inhibition (IC50 μM)
Procedure: as §1

HCT 116 = assay: Cell growth inhibition IC50, HCT 116; conditions: Homo sapiens, HCT-116, read-out: Growth Inhibition (IC50 μM)
Procedure: as §2

NCI-H747 = assay: Cell growth inhibition IC50, NCI-H747; conditions: Homo sapiens, NCI-H747, read-out: Growth Inhibition (IC50 μM)
Procedure: as §2

Colo 205 = assay: Cell growth inhibition IC50, Colo 205; conditions: Homo sapiens, COLO 205, read-out: Growth Inhibition (IC50 μM)
NCI-H358 = assay: Cell growth inhibition IC50, NCI-H358; conditions: Homo sapiens, NCI-H358, read-out: Growth Inhibition (IC50 μM)
Procedure: as §2

NCI-H2009 = assay: Cell growth inhibition IC50, NCI-H2009; conditions: Homo sapiens, NCI-H2009, read-out: Growth Inhibition (IC50 μM)
Procedure: as §2

T24 = assay: Cell growth inhibition IC50 (methylene blue), T24; conditions: Homo sapiens, T-24, 72 h, read-out: Growth Inhibition (IC50 μM)
Procedure: as §1

H1197 = assay: Cell growth inhibition IC50 (methylene blue), H1197; conditions: Homo sapiens, 72 h, read-out: Growth Inhibition (IC50 μM)
Procedure: The cells were maintained in tissue culture flasks in RPMI 1640 (Invitrogen # 22400-089) with 10% fetal bovine serum (FBS, HyClone # SH30071.03) and were incubated at 37° Celsius in an atmosphere of 5% CO2, until plating for IC50 determination. For IC50 determination, cells were plated in the appropriate medium at 5,000 cells per well in a 96-well tissue culture dish and returned to the incubator overnight. […] Final concentrations ranged from 30 micromolar to 0.00152 micromolar. After three days of compound exposure, the growth medium was removed by aspiration. Cell biomass was estimated by staining cells in 0.1 ml per well of methylene blue (Sigma #M9140, 0.5% in 50:50, ethanol:water), followed by incubation at room temperature for at least 30 minutes. Stain was aspirated and the plates rinsed by immersion in deionized water, followed by air drying. Stain was released from cells by the addition of 0.1 ml of solubilization solution (1.0% N-lauryl sarcosine, Sodium salt, Sigma #L5121 in PBS). Plates were incubated at room temperature for 40 minutes. Absorbance was read at 620 nm in a Tecan Spectra micro-plate reader. Percent inhibition of cell growth was calculated relative to untreated control wells. IC50 values were interpolated using the method of Levenberg and Marquardt (Mager, 1972) and the equation: y=Vmax*[1−(x^n/(K^n+x^n))], where “K” is equal to IC50.

H1376 = assay: Cell growth inhibition IC50 (methylene blue), H1376; conditions: Homo sapiens, 72 h, read-out: Growth Inhibition (IC50 μM)
Procedure: as §1

SKOV3 = assay: Cell growth inhibition IC50 (methylene blue), SKOV3; conditions: Homo sapiens, SK-OV-3, 72 h, read-out: Growth Inhibition (IC50 μM)
Procedure: as §1

[5] = 1250 mg once daily, interim analysis of 30 patients
[6] = 1250 mg daily oral, 59 patients, investigator reported
[7] = Head and Neck, 9 patients, only patients receiving lapatinib more than 4 months
[8] = QD administration, heavily pre-treated population

Structure (SMILES): CS(=O)(=O)CCNCc1ccc(-c2ccc3ncnc(Nc4ccc(OCc5cccc(F)c5)c(Cl)c4)c3c2)o1 [GW572016, N-{3-chloro-4-[(3-fluorobenzyl)oxy]phenyl}-6-[5-({[2-(methanesulphonyl)ethyl]amino}methyl)-2-furyl]-4-quinazolinamine]
- kinase inhibition in human xenograft studies (EGFR and erbB2 kinases): dose-dependent kinase inhibition

Structure (SMILES): O=c1[nH]cc(F)c(=O)[nH]1 [FU, fluorouracil]
- clinical benefit response (cancer-related symptoms) [1]: 4.8%
- overall survival [1]: 4.4 months

Structure (SMILES): CS(=O)(=O)CCNCc1ccc(-c2ccc3ncnc(Nc4ccc(OCc5cccc(F)c5)c(Cl)c4)c3c2)o1.Cc1ccc(S(=O)(=O)O)cc1 [GW572016F, N-{3-Chloro-4-[(3-fluorobenzyl)oxy]phenyl}-6-[5-({[2-(methanesulphonyl)ethyl]amino}methyl)-2-furyl]-4-quinazolinamine ditosylate monohydrate]
- IC50 (Lovo): 3.39 µM
- IC50 (LS174T): 1.51 µM
- IC50 (RKO): 5.48 µM
- IC50 (H157): 5.98 µM
- IC50 (NCI-H727): 7.59 µM
- IC50 (A427): 5.95 µM
- IC50 (NCI-H460): 9 µM
- IC50 (NCI-H322): 0.92 µM
- IC50 (SKMEL28): 5.9 µM
- Clinical benefit (≧6 months SD) [2, 5]: 10%
- PR confirmed at 8 weeks (number) [2, 5]: one
- patients with progressive disease [2, 5]: 17%
- patients with tumour reduction qualified as partial responses (PR) at the initial assessment [2, 5]: 10%
- activity (in words) ([2]; second-line oral treatment): promising activity
- patients with asymptomatic, Grade 2 decrease in cardiac ejection fraction ([3]; 1250 mg daily): One
- tolerability (in words) ([3]; 1250 mg daily): well-tolerated
- PR, independent radiologic review ([3]; 1250 mg daily oral, 59 patients, RECIST): 2%
- partial responses (PR), investigators [3, 6]: 3%
- stable disease (SD), investigators [3, 6]: 20%
- Grade 3/4 AEs: diarrhea ([3]; 1250 mg daily, Grade 3/4): 3%
- Grade 3/4 AEs: vomiting ([3]; 1250 mg daily, Grade 3/4): 7%
- Adverse events: asthenia ([3]; 1250 mg daily, all grades): 12%
- Adverse events: diarrhea ([3]; 1250 mg daily, all grades): 39%
- Adverse events: fatigue ([3]; 1250 mg daily, all grades): 10%
- Adverse events: nausea ([3]; 1250 mg daily, all grades): 27%
- Adverse events: rash ([3]; 1250 mg daily, all grades): 32%
- Adverse events: vomiting ([3]; 1250 mg daily, all grades): 22%
- median TTP ([3]; 95% CI 8.00, 11.29): 8.6 weeks
- median overall survival ([3]; 95% CI 13.14, 30.29): 17.9 weeks
- clinical benefit (CR+PR+SD≧16 weeks), independent review ([3]; assessed by independent review): 12%
- clinical benefit (CR+PR+SD≧16 weeks), investigator ([3]; assessed by investigator): 14%
- patients with cytoreduction ([3]; at week 8): 10 patients
- patients with cytostasis ([3]; at week 8): 4 patients
- patients with tumor growth up to 20% ([3]; at week 8): 10 patients
- patients with durable SD lasting 6 months ([3]; independent review): three
- patients with durable SD lasting 4 months ([3]; investigator review): six
- time on study of one patient who remains on study ([3]; one patient): > 56 weeks
- activity (in words) ([3]; relapsed, advanced or metastatic TCC of the bladder): exhibits monotherapy activity
- median duration of SD (solid tumors; 22 SD pts): 4 mos
- interstitial pneumonitis (solid tumors; 81 patients treated): no cases
- time remained on lapatinib, SD patient (solid tumors; AUP metastatic to lung): ≥ 8 mos
- Clinical Response, SD (patients) (solid tumors; AUP, 6 patients, only patients receiving lapatinib more than 4 months): SD = 1
- Clinical Response, SD (patients) (solid tumors; Breast, 6 patients, only patients receiving lapatinib more than 4 months): SD = 2
- Clinical Response, SD (patients) (solid tumors; Cervical, 2 patients, only patients receiving lapatinib more than 4 months): SD = 1
- Clinical Response, SD (patients) (solid tumors; Colorectal, 27 patients, only patients receiving lapatinib more than 4 months): SD = 3
- Clinical Response, CR (patients) (solid tumors; [7]): 1
- Clinical Response, SD (patients) (solid tumors; [7]): 3
- Clinical Response, SD (patients) (solid tumors; Mesothelioma, 3 patients, only patients receiving lapatinib more than 4 months): SD = 1
- Clinical Response, SD (patients) (solid tumors; NSCLC, 7 patients, only patients receiving lapatinib more than 4 months): SD = 3
- clinical activity (in words) (solid tumors; [8]): evidence of clinical activity
- tolerability (in words) (solid tumors; [8]): well tolerated
- Clinical Response, SD (patients) (solid tumors; Renal, 6 patients, only patients receiving lapatinib more than 4 months): SD = 2
- duration of CR (solid tumors; erbB1 overexpressing head and neck squamous cell carcinoma): ≥ 16 mos
- CR (number of patients) (solid tumors; erbB1 overexpressing head and neck squamous cell carcinoma, 81 patients treated): One
- time remained on lapatinib, SD patient (solid tumors; non-small cell lung cancer): ≥ 12 mos
- patients who experienced SD (solid tumors; various tumors most overexpressing either erbB1 or erbB2, 81 patients treated): Twenty-two
- IC50 (HFF): 6.45 µM
- IC50 (PC3): 7.15 µM
- IC50 (HT29): 5.24 µM
- IC50 (A549): 4.98 µM
- IC50 (HMEC): 1.34 µM
- IC50 (786O): 1.82 µM
- IC50 (A431): 0.23 µM
- IC50 (SW480): 6.86 µM
- IC50 (DLD-1): 3.63 µM
- IC50 (SW620): 6.75 µM
- IC50 (SW837): 4.7 µM
- IC50 (BxPC3): 1.41 µM
- IC50 (CaLu3): 0.057 µM
- IC50 (Calu1): 5.51 µM
- IC50 (LNCaP): 4.69 µM
- IC50 [4]: 0.03 µM
- IC50 (HCT 116): 5.87 µM
- IC50 (NCI-H747): 1.49 µM
- IC50 (Colo 205): 7.7 µM
- IC50 (NCI-H358): 0.27 µM
- IC50 (NCI-H2009): 11.5 µM
- IC50 (T24): 8.22 µM
- IC50 (H1197): 7.78 µM
- IC50 (H1376): 3.34 µM
- IC50 (SKOV3): 1.25 µM

Structure (SMILES): Nc1ccn([C@@H]2O[C@H](CO)[C@@H](O)C2(F)F)c(=O)n1 [gemcitabine]
- clinical benefit response (cancer-related symptoms) [1]: 23.8%
- overall survival [1]: 5.6 months
